Test results from US8969335B2, “Benzonitrile derivatives as kinase inhibitors” (MERCK PATENT GmbH, priority 2011, dated 2015).

How the values were obtained:
[1] = biological target: TANK binding kinase (TBK1) (Homo sapiens (Human), UniProt Q9UHD2); test: TBK1 enzyme assay (384-well flashplate kinase assay); type: biochemical; details: 0.6 nM TBK1, 10 μM ATP, 30° C., 120 min
Experimental: Test for the Inhibition of TBK1
0.6 nM TANK binding kinase (TBK1), 800 nM biotinylated MELK-derived peptide (Biotin-Ah-Ah-[sequence]) and 10 μM ATP (spiked with 0.25 μCi of ^33P-ATP/well) are incubated at 30° C. for 120 min in a total volume of 50 μl (10 mM MOPS, 10 mM Mg acetate, 0.1 mM EGTA, 1 mM DTT, 0.02% of Brij35, 0.1% of BSA, pH 7.5) with or without test compound. The reaction is stopped with 25 μl of 200 mM EDTA. After 30 min at room temperature, the liquid is removed, and each well is washed three times with 100 μl of 0.9% sodium chloride solution. Non-specific reaction is measured in the presence of 100 nM staurosporine. The radioactivity is measured in a Topcount (PerkinElmer).

[2] = system: TBK1 + IKKε (phospho-IRF3 @ Ser 386, MDA-MB-468 cells); test: TBK1 + IKKε cell assay: dose response inhibition of phospho-IRF3 @ Ser 386 in MDA-MB-468 cells; type: cell-based; details: Homo sapiens, poly(I:C) stimulation, nuclear phospho-IRF3, read-out: TBK1 + IKKε cell assay IC50
Experimental: Day 1: MDA-MB-468 cells are detached using HyQ-Tase, counted and sown into a 384-well plate with TC surface and clear bottom in a density of 10,000 cells per well in a total volume of 35 μl of complete medium. Alternatively, the cells are sown directly from frozen glass vials.
Day 2: The cells are pre-treated with inhibitor compounds for 1 h prior to poly(I:C) stimulation. After incubation for 2 h with poly(I:C), the cells are fixed in (para)formaldehyde (PFA) and permeabilised using methanol (MeOH). The cells are then blocked and incubated with an anti-pIRF3 antibody at 4° C. overnight.
Day 3: The primary antibody is washed off, an AlexaFluor488-conjugated secondary antibody is added, the cells are contrast-stained with propidium iodide, followed by image acquisition on an IMX ultra-high content reader.

[3] = biological target: IKKε (Homo sapiens (Human), UniProt Q14164); test: IKKε kinase assay (384-well flashplate assay); type: biochemical; details: 1 nM IKKε, 10 μM ATP, 30° C., 2 hours; read-out: IKKε enzyme assay IC50
Sequence of IKKε (Q14164 whole entry): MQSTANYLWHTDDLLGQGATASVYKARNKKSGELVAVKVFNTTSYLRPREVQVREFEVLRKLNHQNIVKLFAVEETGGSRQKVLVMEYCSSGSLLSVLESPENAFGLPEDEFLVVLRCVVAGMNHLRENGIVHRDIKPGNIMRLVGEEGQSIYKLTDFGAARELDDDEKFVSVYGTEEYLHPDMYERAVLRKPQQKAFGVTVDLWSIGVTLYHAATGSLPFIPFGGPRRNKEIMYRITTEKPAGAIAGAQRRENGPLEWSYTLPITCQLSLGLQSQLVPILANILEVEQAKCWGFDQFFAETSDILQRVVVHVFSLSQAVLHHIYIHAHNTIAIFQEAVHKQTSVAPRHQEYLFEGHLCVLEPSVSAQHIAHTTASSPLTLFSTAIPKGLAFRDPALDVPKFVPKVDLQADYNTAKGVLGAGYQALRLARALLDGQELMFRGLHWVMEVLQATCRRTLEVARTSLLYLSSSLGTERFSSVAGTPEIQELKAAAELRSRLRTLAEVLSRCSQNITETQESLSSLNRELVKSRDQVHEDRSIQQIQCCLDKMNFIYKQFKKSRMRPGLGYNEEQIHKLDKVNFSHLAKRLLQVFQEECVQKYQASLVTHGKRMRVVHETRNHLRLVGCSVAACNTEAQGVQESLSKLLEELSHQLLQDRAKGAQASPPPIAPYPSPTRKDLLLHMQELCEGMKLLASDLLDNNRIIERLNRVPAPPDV
Experimental: Test for the Inhibition of IKKε
IKKε—Kinase Assay (IKKepsilon)
The kinase assay is performed as 384-well flashplate assay (for example for Topcount measurement).
1 nM IKKε, 800 nM biotinylated IκBα(19-42) peptide (Biotin-C6-C6-[…]) and 10 μM ATP (spiked with 0.3 μCi of ^33P-ATP/well) are incubated at 30° C. for 2 hours in a total volume of 50 μl (10 mM MOPS, 10 mM Mg acetate, 0.1 mM EGTA, 1 mM dithiothreitol, 0.02% of Brij35, 0.1% of BSA, 0.1% of BioStab, pH 7.5) with or without test compound. The reaction is stopped using 25 μl of 200 mM EDTA. After 30 min at room temperature, the liquid is removed, and each well is washed three times with 100 μl of 0.9% sodium chloride solution. Non-specific reaction is determined in the presence of 3 μM MSC2119074 (BX-795). The radioactivity is measured using a Topcount (PerkinElmer). The results (for example IC50 values) are calculated using program tools provided by the IT Department (for example AssayExplorer, Symyx).

Sequence of TANK binding kinase (TBK1) (Q9UHD2 whole entry): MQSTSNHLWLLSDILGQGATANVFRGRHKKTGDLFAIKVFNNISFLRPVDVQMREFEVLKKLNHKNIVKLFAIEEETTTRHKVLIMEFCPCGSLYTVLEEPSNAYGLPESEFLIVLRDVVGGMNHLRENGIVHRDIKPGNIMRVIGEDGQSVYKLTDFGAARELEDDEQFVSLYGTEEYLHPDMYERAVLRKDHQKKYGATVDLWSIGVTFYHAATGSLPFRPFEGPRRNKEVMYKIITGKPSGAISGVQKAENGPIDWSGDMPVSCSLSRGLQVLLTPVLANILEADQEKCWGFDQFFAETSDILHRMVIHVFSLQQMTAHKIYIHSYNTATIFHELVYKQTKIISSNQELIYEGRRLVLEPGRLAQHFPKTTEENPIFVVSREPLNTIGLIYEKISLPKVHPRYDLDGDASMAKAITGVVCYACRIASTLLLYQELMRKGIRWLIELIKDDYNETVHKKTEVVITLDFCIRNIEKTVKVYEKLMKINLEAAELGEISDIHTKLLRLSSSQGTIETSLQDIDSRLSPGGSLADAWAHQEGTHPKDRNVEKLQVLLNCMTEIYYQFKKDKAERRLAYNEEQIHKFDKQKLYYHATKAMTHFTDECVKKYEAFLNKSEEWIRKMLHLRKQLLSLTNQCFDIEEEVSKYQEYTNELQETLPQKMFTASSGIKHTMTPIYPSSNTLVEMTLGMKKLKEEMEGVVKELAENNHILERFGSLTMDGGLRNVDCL

SMILES	IC50 [1]	IC50 [2]	IC50 [3]
N#Cc1cc(-c2ccnc(Nc3cnn(CC4CC4C#N)c3)c2)ccc1OC1CCOCC1 (stereo not drawn) [Compound A24, 5-{2-[1-(2-Cyanocyclopropylmethyl)-1H-pyrazol-4-ylamino]pyridin-4-yl}-2-(tetrahydropyran-4-yloxy)benzonitrile]	0.11 µM	4.8 µM	0.089 µM
N#Cc1cc(-c2ccnc(Nc3cnn(C4CCNC4)c3)c2)ccc1OC1CCOCC1 (stereo not drawn) [Compound A28, 5-[2-(1-Pyrrolidin-3-yl-1H-pyrazol-4-ylamino)pyridin-4-yl]-2-(tetrahydropyran-4-yloxy)benzonitrile]	0.28 µM	23 µM	0.074 µM
N#Cc1cc(-c2ccnc(Nc3cnn(CCC4CCN(C(=O)CO)CC4)c3)c2)ccc1OC1CCOCC1 [Compound A29, 5-[2-(1-{2-[1-(2-Hydroxyacetyl)piperidin-4-yl]ethyl}-1H-pyrazol-4-ylamino)pyridin-4-yl]-2-(tetrahydropyran-4-yloxy)benzonitrile]	0.12 µM	6.7 µM	0.088 µM
Cn1ccc(Nc2nccc(-c3ccc(OC4CCOCC4)c(C#N)c3)n2)n1 [Compound A33, 5-[2-(1-Methyl-1H-pyrazol-3-ylamino)pyrimidin-4-yl]-2-(tetrahydropyran-4-yloxy)benzonitrile]	0.13 µM	5 µM	0.058 µM
COCCn1cc(Nc2nccc(-c3ccc(OC4CCOCC4)c(C#N)c3)n2)cn1 [Compound A35, 5-{2-[1-(2-Methoxyethyl)-1H-pyrazol-4-ylamino]pyrimidin-4-yl}-2-(tetrahydropyran-4-yloxy)benzonitrile]	0.006 µM	0.67 µM	0.018 µM
N#Cc1cc(-c2ccnc(Nc3cnn(C4CCNCC4)c3)n2)ccc1OC1CCOCC1 [Compound A64, 5-[2-(1-piperidin-4-yl-1H-pyrazol-4-ylamino)pyrimidin-4-yl]-2-(tetrahydropyran-4-yloxy)-benzonitrile]	0.006 µM	0.23 µM	0.006 µM
N#Cc1cc(-c2ccnc(Nc3ncc(C4CCNCC4)cn3)c2)ccc1OC1CCOCC1 [Compound A66, 5-[2-(5-piperidin-4-ylpyrimidin-2-ylamino)pyridin-4-yl]-2-(tetrahydropyran-4-yloxy)benzonitrile]	0.1 µM	4.9 µM	0.082 µM
N#Cc1cc(-c2ccnc(Nc3cnn(C[C@H]4C[C@@H]4CO)c3)n2)ccc1OC1CCOCC1 [Compound A67, 5-{2-[1-((1S,2S)-2-hydroxymethylcyclopropylmethyl)-1H-pyrazol-4-ylamino]pyrimidin-4-yl}-2-(tetrahydropyran-4-yloxy)benzonitrile]	0.006 µM	0.42 µM	0.004 µM
N#Cc1cc(-c2ccnc(Nc3ccc(C4CCNCC4)nn3)c2)ccc1OC1CCOCC1 [Compound A71, 5-[2-(6-piperidin-4-ylpyridazin-3-ylamino)pyridin-4-yl]-2-(tetrahydropyran-4-yloxy)benzonitrile]	0.021 µM	2.4 µM	0.006 µM
N#Cc1cc(-c2ccnc(Nc3cnc(C4CCNCC4)cn3)c2)ccc1OC1CCOCC1 [Compound A72, 5-[2-(5-piperidin-4-ylpyrazin-2-ylamino)pyridin-4-yl]-2-(tetrahydropyran-4-yloxy)benzonitrile]	0.01 µM	0.84 µM	0.007 µM
N#Cc1cc(-c2ccnc(Nc3cnn([C@H]4CC[C@@H](O)CC4)c3)n2)ccc1OC1CCOCC1 [Compound A73, 5-{2-[1-(4-hydroxycyclohexyl)-1H-pyrazol-4-ylamino]pyrimidin-4-yl}-2-(tetrahydropyran-4-yloxy)benzonitrile]	0.008 µM	0.27 µM	0.01 µM
N#Cc1cc(-c2ccnc(Nc3cc(C4CCNCC4)ccn3)c2)ccc1OC1CCOCC1 [Compound A74, 5-[2-(1′,2′,3′,4′,5′,6′-hexahydro-[4,4′]bipyridinyl-2-ylamino)pyridin-4-yl]-2-(tetrahydropyran-4-yloxy)benzonitrile]	0.002 µM	1.6 µM	0.001 µM
N#Cc1cc(-c2ccnc(Nc3cnn(CCO)c3)n2)ccc1OC1CCOCC1 [Compound A75, 5-{2-[1-(2-hydroxyethyl)-1H-pyrazol-4-ylamino]pyrimidin-4-yl}-2-(tetrahydropyran-4-yloxy)benzonitrile]	0.003 µM	0.5 µM	0.004 µM
COc1nc(Nc2nccc(-c3ccc(OC4CCOCC4)c(C#N)c3)n2)ccc1C1=CCNCC1 [Compound A76, 5-[2-(2-methoxy-1′,2′,3′,6′-tetrahydro[3,4′]bipyridinyl-6-ylamino)pyrimidin-4-yl]-2-(tetrahydropyran-4-yloxy)benzonitrile]	0.027 µM	6.1 µM	0.021 µM
N#Cc1cc(-c2ccnc(Nc3cc(CN)ccn3)c2)ccc1OC1CCOCC1 [Compound A77, 5-[2-(4-aminomethyl-pyridin-2-ylamino)pyridin-4-yl]-2-(tetrahydropyran-4-yloxy)benzonitrile]	0.03 µM	1.4 µM	0.012 µM
CN1CCC(c2ccnc(Nc3cc(-c4ccc(OC5CCOCC5)c(C#N)c4)ccn3)c2)CC1 [Compound A78, 5-[2-(1′-methyl-1′,2′,3′,4′,5′,6′-hexahydro-[4,4′]bipyridinyl-2-ylamino)pyridin-4-yl]-2-(tetrahydropyran-4-yloxy)benzonitrile]	0.005 µM	2.1 µM	0.006 µM
N#Cc1cc(-c2ccnc(Nc3cnn(CCO)c3)c2)ccc1OC1CCOCC1 [Compound A79, 5-{2-[1-(2-hydroxyethyl)-1H-pyrazol-4-ylamino]pyridin-4-yl}-2-(tetrahydropyran-4-yloxy)benzonitrile]	0.12 µM	4.9 µM	0.091 µM
Cc1cc(Nc2nccc(-c3ccc(OC4CCOCC4)c(C#N)c3)n2)no1 [Compound A80, 5-[2-(5-methylisoxazol-3-ylamino)pyrimidin-4-yl]-2-(tetrahydropyran-4-yloxy)benzonitrile]	0.23 µM	13 µM	0.21 µM
CN(C)Cc1ccnc(Nc2cc(-c3ccc(OC4CCOCC4)c(C#N)c3)ccn2)c1 [Compound A81, 5-[2-(4-dimethyl-aminomethylpyridin-2-ylamino)pyridin-4-yl]-2-(tetrahydropyran-4-yloxy)benzonitrile]	0.014 µM	0.35 µM	0.01 µM
N#Cc1cc(-c2ccnc(Nc3cnn(CCN4CCCC4)c3)n2)ccc1OC1CCOCC1 [Compound A83, 5-{2-[1-(2-pyrrolidin-1-ylethyl)-1H-pyrazol-4-ylamino]pyrimidin-4-yl}-2-(tetrahydropyran-4-yloxy)benzonitrile]	0.06 µM	5.3 µM	0.088 µM
N#Cc1cc(-c2ccnc(Nc3ccc(N4CCOCC4)nn3)c2)ccc1OC1CCOCC1 [Compound A90, 5-[2-(6-morpholin-4-ylpyridazin-3-ylamino)pyridin-4-yl]-2-(tetrahydropyran-4-yloxy)benzonitrile]	0.088 µM	1.3 µM	0.098 µM
N#Cc1cc(-c2ccnc(Nc3cccc(C4CCNCC4)n3)c2)ccc1OC1CCOCC1 [Compound A91, 5-[2-(1′,2′,3′,4′,5′,6′-hexahydro-[2,4′]bipyridinyl-6-ylamino)pyridin-4-yl]-2-(tetrahydropyran-4-yloxy)benzonitrile]	0.032 µM	2.3 µM	0.008 µM
N#Cc1cc(-c2ccnc(Nc3cnn(CCO)c3)n2)ccc1OCC1CCC1 [Compound A94, 2-cyclobutylmethoxy-5-{2-[1-(2-hydroxyethyl)-1H-pyrazol-4-ylamino]pyrimidin-4-yl}benzonitrile]	0.014 µM	0.98 µM	0.018 µM
N#Cc1cc(-c2ccnc(Nc3cnn(C[C@H]4C[C@@H]4CO)c3)n2)ccc1OCC1CCC1 [Compound A95, 2-cyclobutylmethoxy-5-{2-[1-((1S,2S)-2-hydroxymethylcyclopropylmethyl)-1H-pyrazol-4-ylamino]pyrimidin-4-yl}benzonitrile]	0.01 µM	0.81 µM	0.008 µM
N#Cc1cc(-c2ccnc(Nc3cncc(C4CCNCC4)n3)c2)ccc1OC1CCOCC1 [Compound A96, 5-[2-(6-piperidin-4-ylpyrazin-2-ylamino)pyridin-4-yl]-2-(tetrahydropyran-4-yloxy)benzonitrile]	0.024 µM	5.4 µM	0.04 µM
N#Cc1cc(-c2ccnc(Nc3cnn([C@H]4CC[C@@H](O)CC4)c3)n2)ccc1OCC1CCC1 [Compound A97, 2-cyclobutylmethoxy-5-{2-[1-(4-hydroxycyclohexyl)-1H-pyrazol-4-ylamino]-pyrimidin-4-yl}benzonitrile]	0.011 µM	2.1 µM	0.039 µM
N#Cc1cc(-c2ccnc(Nc3cnc(C4CCOCC4)cn3)c2)ccc1OC1CCOCC1 [Compound A98, 2-(tetrahydropyran-4-yloxy)-5-{2-[5-(tetrahydropyran-4-yl)pyrazin-2-yl-amino]pyridin-4-yl}benzonitrile]	0.005 µM	0.39 µM	0.008 µM
